Entries after “also recorded” stand apart in the source; their conditions may differ.

The nature of test [1]: Analytical ultracentrifuge sedimentation velocity analysis of P[5]a with LPS. It counts as binding, Pseudomonas aeruginosa. Particulars: 135 μM P[5]a and 35 μM LPS, UV absorbance at 305 nm. How it is done: A clear initial peak of unbound P[5]a can be observer at low molecular weight (2260 Da), followed by a long and polydisperse collection of peaks, ranging from low molecular weight (S), to very high molecular weight (60.000 kDa) See Example 6.
The interaction of P[5]a with lipopolysaccharides of P. aeruginosa, strain PA10 was measured using AUC.
Analytical ultracentrifugation (AUC) is based on sedimentation of colloidal particles in a centrifugal field. During centrifugation particles move toward the bottom of the measuring cell. This movement leads to redistribution of particles along the measuring cell, which in turn can be expressed as a change in concentration along the measuring cell. The absorbance detector was used to follow the changes caused by centrifugation (absorbance is proportional to concentration). In simple words, in AUC the inventors measure how concentration changes during centrifugation, so they collect concentration profiles. Interaction between particles can be measured as a result of changes in the sedimentation profiles. […]
The spectra of both P[5]a and LPS from P. aeruginosa were first analysed separately (see FIG. 12 a and b). […] Because only the sedimentation of P[5]a was detected at 305 nm, the inventors were certain that any changes observed in the sedimentation profile, come from interactions between P[5]a and other particles. […]

The subject of test [2] is MDR resistant clinical isolates. Put plainly: Coadministered antibiotics with P[5]a in MDR resistant clinical isolates (Example 8). Type of test: cell-based. The source says:
The effect of P[5]a on the penetration and efficacy of coadministered antibiotics Amikacin (a), Cefepime (b), Ceftazidime (c) and Meropenem (d) in MDR resistant clinical isolates were studied.

For test [3], the system named is multidrug resistant P. aeruginosa strain PA 5539. The test is described as follows: MIC of antibiotics without and with P[5]a, Luria broth (sensitizing effect test). Particulars: with vs without P[5]a. Type of test: cell-based, Pseudomonas aeruginosa. As for the experimental part: Values in blue, yellow and orange indicate the bacterium is categorized as “susceptible”, “intermediate susceptible” and “resistant”, respectively, according to the “Performance Standards for Antimicrobial Susceptibility Testing”, which is maintained by the Clinical and Laboratory Standards Institute.
So, it was tested whether P[5]a could sensitize (increase the efficacy of) already resistant P. aeruginosa strains PA 5834 (FIG. 4) and PA 5539 (FIG. 5), that are resistant to a wide variety of antibiotics. To test this, two MDR P. aeruginosa strains from clinical isolates were used. These isolates were obtained from patients in the Meilahti hospital (Helsinki, Finland). The antibiotics used, and their different mechanisms of actions, are described in Table 2.
(§1) In FIG. 4 with P. aeruginosa strain PA 5834, P[5]a made the bacterium classify as “susceptible” again, whereas without P[5]a it was fully “resistant” to the antibiotics ceftazidime and cefepime (even growing in the highest concentration we tested). This could have major implications, because there have been many encounters already of “Pan-Drug resistant bacteria” bacteria that are classified as “resistant” to all known antibiotics. They are basically untreatable by current standards. P[5]a Virulence inhibitors, might make those bacteria susceptible again for treatment. In FIG. 5 with P. aeruginosa strain PA 5539, the overall resistance profile of the bacterium was much lower. […] Further testing was done on six resistant P. aeruginosa strains from the Helsinki hospital collection, PA 5550, PA 5842, PA 5827, PA 5832, PA 5834 and PA 5539 with four different antibiotics (amikacin, cefepime, ceftazidime and meropenem).

For test [4], the system named is Pserudomonas aeruginosa, strain PA01. The test is described as follows: Biofilm formation. It counts as cell-based, Pseudomonas aeruginosa. To be noted: P[5]a in high concentrations. How it is done:
The effect of P[5]a on the formation of biofilm by a pathogenic Gram-negative bacterium, Pserudomonas aeruginosa, strain PA01 was measured.
Biofilm is, alongside pyocyanin production, an important indicator of virulence in P. aeruginosa.

The test system of a further test is Pseudomonas aeruginosa. Put plainly: RNA sequencing / Gene Set Enrichment Analysis with and without P[5]a. It counts as cell-based. Particulars: bacterial RNA with vs without P[5]a. The text has this: Changes in gene expression levels are grouped in specific “gene sets”, which group all genes related to a specific function, for instance biofilm formation.
Pseudomonas aeruginosa is known to be one of the most problematic pathogenic micro-organisms. Indeed, in a laboratory environment, P. aeruginosa is resistant to nearly all antibiotics within a period of 3 to 4 days. Comparing the sequencing results of the bacterial RNA, with and without a pillarene[5]a (P[5]a, CAS No. 1351445-28-7), allowed the inventors to identify the processes that are affected by comparison with pre-determined gene set terms from the “KEGG pathway analysis” and the “GO Ontology” (see FIG. 1). These gene sets contain all the genes associated with a certain term, for instance “Biofilm”, and the inventors referenced all the genes affected by P[5]a, to these gene sets.

Test [5] deals with P. aeruginosa PAO1. The test is described as follows: Pyocyanin toxin production followed over 14 days. It counts as cell-based, Pseudomonas aeruginosa. Particulars: for pyocyanin toxin formation: throughout 14 days. The source says: (§2) The effect of P[5]a on encountering resistance development in a pathogenic Gram-negative bacterium, Pserudomonas aeruginosa, strain PA01 was studied over 14-day period. The development of resistance over 14 continuous days by the pathogen PAO1 towards treatment with four clinically relevant antibiotics (meropenem, cefepime, aztreonam and tobramycin) and P[5]a was compared. […] In all antibiotic treatments, reduced susceptibility was observed from day 4 onwards, with complete resistance to all treatments after 12 days.

Test [6] has as its system resistant P. aeruginosa strains PA 5550, PA 5842, PA 5827, PA 5832, PA 5834 and PA 5539. Put plainly: MIC of four antibiotics in presence or absence of P[5]a, Mueller broth. It counts as cell-based, Pseudomonas aeruginosa. To be noted: six resistant strains, presence vs absence of P[5]a.
From the text: as §1

Test [7] concerns P. aeruginosa PAO1. Put plainly: Antibiotic resistance buildup, daily MIC over 14 consecutive days. It counts as cell-based, Pseudomonas aeruginosa.
From the text: Area below the yellow line means that the bacterium is classified as susceptible to the antibiotic. The area in between yellow and red means that the bacterium is intermediate susceptible to the antibiotic. The area above the red line means that the bacterium is classified as resistant to the antibiotic (According to the “Performance Standards for Antimicrobial Susceptibility Testing”, which is maintained by the Clinical and Laboratory Standards Institute).
Because of this, a combined administration of P[5]a with a variety of antibiotics was tested. MIC values with two different antibiotics, meropenem and cefepime (FIG. 2) were tested, over a period of 14 consecutive days (which more than surpasses the length of normal treatments, 7-10 days), when administered together with and without 2.5 mM P[5]a.
In this experiment, the minimum inhibitory concentration MIC was analyzed daily for 14 consecutive days, and the highest MIC values (so the highest concentration of antibiotic where the bacteria still grew) was used for the next day. This way, the buildup of resistance over time can be monitored. In FIG. 2, the area below the yellow line means that the bacterium is classified as susceptible to the antibiotic, the area in between yellow and red means that the bacterium is intermediate susceptible to the antibiotic and the area above the red line means that the bacterium is classified as resistant to the antibiotic (According to the “Performance Standards for Antimicrobial Susceptibility Testing”, which is maintained by the Clinical and Laboratory Standards Institute).
as §2
The effect of P[5]a on the enhancement of the penetration of coadministered antibiotics having intracellular targets (aztreonam, cefepime, meropenem and tobramycin) was studied over 14-day period in a pathogenic Gram-negative bacterium, Pserudomonas aeruginosa, strain PA01. […] MIC values were categorized in three groups according to the Clinical and Laboratory Standards Institute: susceptible, intermediate susceptible and resistant.

Regarding `C[N+](C)(C)CCOc1cc2c(OCC[N+](C)(C)C)cc1Cc1cc(OCC[N+](C)(C)C)c(cc1OCC[N+](C)(C)C)Cc1cc(OCC[N+](C)(C)C)c(cc1OCC[N+](C)(C)C)Cc1cc(OCC[N+](C)(C)C)c(cc1OCC[N+](C)(C)C)Cc1cc(OCC[N+](C)(C)C)c(cc1OCC[N+](C)(C)C)C2.[Br-].[Br-].[Br-].[Br-].[Br-].[Br-].[Br-].[Br-].[Br-].[Br-]` [P[5]a, 4,9,14,19,24,26,28,30,32,34-Deca[2-(trimethylammonio)ethoxy]hexacyclo[21.2.2.2^3,6.2^8,11.2^13,16.2^18,21]pentatriaconta1(25),3,5,8,10,13,15,18,20,23,26,28,30,32,34-pentadecaene ⋅ 10bromide], the “interaction with LPS” value in test [1] is reported as “strong interaction; also recorded: capable of interacting with multiple LPS particles”. Also, in test [2], the “penetration and efficacy of coadministered antibiotics Amikacin, Cefepime, Ceftazidime and Meropenem” value is recorded as “enhances”. Moreover, the “sensitizing effect on antibiotics” value in test [3] is listed as “sensitizing effect could be seen with nearly all antibiotics”. Also, in test [4], the biofilm formation entry is on record as “significantly reduced”. Further, the “bacterial antibiotic resistance genes (MexCD-OprJ, MexAB-OprM, mexXY)” value in the test with Pseudomonas aeruginosa was “significantly down-regulates”. The “gene sets associated with virulence factors (Biofilm, Quorum Sensing, Bioverdine biosynthetic process, Biosynthesis of Secondary Metabolites)” value in the test with Pseudomonas aeruginosa (KEGG and GO gene sets) is on record as “downregulated”. For the same compound, the “resistance development towards P[5]a (decrease of effectivity of toxin inhibition)” value in the test with P. aeruginosa PAO1 [5] (14-day period) was “does not encounter resistance development; also recorded: no observable decrease of effectivity”. Further, the pyocyanin toxin formation entry with P. aeruginosa PAO1 [5] is recorded as “successfully suppressed”; in the test on P. aeruginosa PAO1 [5] (listed as P5a) it was “very efficient in suppressing”. Besides, the bacterial viability entry in the test with P. aeruginosa PAO1 [5] (throughout 14 days of P[5]a treatment) is “no decrease”. The “sensitizing effects on amikacin, cefepime, ceftazidime and meropenem” value in test [6] was “In all cases the sensitizing effects were observed”. The direct antimicrobial properties result in the test with P. aeruginosa PAO1 [7] is on record as “lacks direct antimicrobial properties”. Moreover, in the test on P. aeruginosa PAO1 [7] (2.5 mM P[5]a, 14 consecutive days), the “buildup of resistance to meropenem and cefepime when P[5]a is added” value was “significantly reduced”.

Values taken from US20230145342A1, “COMBINATORY TREATMENT” (AALTO UNIVERSITY FOUNDATION SR, priority 2020, published 2023).
